The text below walks through data of ChEMBL document CHEMBL5104197, “Structure-Based Optimization of Coumestan Derivatives as Polyketide Synthase 13-Thioesterase(Pks13-TE) Inhibitors with Improved hERG Profiles for Mycobacterium tuberculosis Treatment” (J Med Chem, 2022).

For data set [1], the system named is Mycobacterium tuberculosis. Put plainly: microbe, parasite or virus in culture. Particulars: H37Rv, 168 h.
A short description of data set [2]: Metabolic stability in human liver microsomes assessed as compound remaining measured after 60 mins by LC-MS/MS analysis. Particulars: read-out: Stability. Format: ADME, Microsome.
Data set [3] concerns Mycobacterium tuberculosis. Description: Binding affinity to wild type Mycobacterium tuberculosis Pks13-TE N1640 expressed in Escherichia coli BL21(DE3) pLysS assessed as change in melting temperature at 1:5 compound to protein ratio by nanoDSF thermal stability analysis.
Data set [4] relates to Mycobacterium tuberculosis. In kind it is functional, Vero. The conditions noted are these: V4207, 168 h, time 7 day.
Data set [5] in a line: Cytotoxicity against African green monkey Vero cells. Format: toxicity, cell-based, Chlorocebus sabaeus.
For data set [6], the system named is Mycobacterium tuberculosis. Format: functional, organism-based. The conditions noted are these: H37Rv, dose 100.0 mg/kg, route po, time 7.0 day.
The subject of data set [7] is Mycobacterium tuberculosis. Description: Binding affinity to wild type Mycobacterium tuberculosis Pks13-TE N1640 expressed in Escherichia coli BL21(DE3) pLysS assessed as change in melting temperature at 1:10 compound to protein ratio by nanoDSF thermal stability analysis.
The subject of data set [8] is Mycobacterium tuberculosis. In kind it is functional, organism-based. Particulars: H37Rv, dose 100.0 mg/kg, route po, time 7.0 day. This is another data set of the same source.
Data set [9] is described as follows: Metabolic stability in human liver microsomes assessed as microsomal intrinsic clearance measured after 60 mins by LC-MS/MS analysis. Format: ADME, Microsome. Particulars: read-out: CLH.
A short description of data set [10]: Metabolic stability in human liver microsomes assessed as half-life measured after 60 mins by LC-MS/MS analysis. In kind it is ADME, Microsome.
Data set [11] in a line: Metabolic stability in human liver microsomes assessed as liver intrinsic clearance measured after 60 mins by LC-MS/MS analysis. Format: ADME, Microsome. Particulars: read-out: CLH.
Data set [12] can be described thus: Selectivity index, ratio of CC50 for African green monkey Vero cells to MIC90 for Mycobacterium tuberculosis H37Rv. In kind it is toxicity. Particulars: read-out: Selectivity Index.

Molecules are shown by their SMILES. ≈ marks a conversion by molar mass, not a printed value. Calls of active or inactive are those of the source. The rule behind the calls is not given here.

`O=c1oc2cc(O)ccc2c2oc3ccc4c(c3c12)CN(C1CC1)CO4` gave an MIC90 in data set [1] of 0.125 µg/mL (≈ 0.358 µM). Same read-out and setting: in the case of `O=c1oc2cc(O)ccc2c2oc3ccc(O)c(CN4CCCC(F)C4)c3c12` (stereo unspecified) it was 0.25 µg/mL (≈ 0.652 µM); in that of `COc1ccc2c(c1)oc(=O)c1c2oc2ccc(O)c(CN3CCC(F)(F)C3)c21`, more than 64 µg/mL; in that of `COc1ccc2c(c1)oc(=O)c1c2oc2ccc(O)c(CN3CCC(C)(C)CC3)c21`, 8 µg/mL (≈ 19.6 µM). Take `O=c1oc2cc(O)ccc2c2oc3ccc(O)c(CN4CCC(Br)CC4)c3c12`: the MIC90 in data set [1] stood at 0.125 µg/mL (≈ 0.281 µM). The same measure, in the same setting: with `O=c1oc2cc(O)ccc2c2oc3ccc(O)c(CN4CCC5(CC4)CC5)c3c12` the figure was 0.25 µg/mL (≈ 0.639 µM); with `O=c1oc2cc(O)ccc2c2oc3ccc(O)c(CN4CCCC(F)(F)C4)c3c12`, more than 64 µg/mL; with `COc1ccc2c(c1)oc(=O)c1c2oc2ccc(O)c(CN3CCC(Br)CC3)c21`, more than 64 µg/mL. On the same count and under the same terms, with `CC1(C)CCN(Cc2c(O)ccc3oc4c5ccc(O)cc5oc(=O)c4c23)CC1` the figure was 0.25 µg/mL (≈ 0.635 µM). For the molecule `O=c1oc2cc(O)ccc2c2oc3ccc(O)c(CN4CCC(F)CC4)c3c12`, the MIC90 in [1] is 0.0625 µg/mL (≈ 0.163 µM); in [4] it was 0.125 µg/mL (≈ 0.326 µM). In data set [2], the remaining at 1 h amounted to 47.4%. In addition, the ΔTm turned out to be 8.8 °C in data set [3] and 7.6 °C in [7]. Further, in data set [5], half-maximal inhibition (IC50) was put at 4 µg/mL (≈ 10.4 µM). For the same molecule, the result in [6] and in data set [8] was Active. Also, the CLint scaled in data set [9] turned out to be 23.5 mL/min/kg; in data set [11] it was 21 mL/min/kg. For the same molecule, the half-life in data set [10] was determined as 0.992 h. Regarding `O=c1oc2cc(O)ccc2c2oc3ccc(O)c(CNCc4ccccc4)c3c12`, the MIC90 in data set [1] was found to be 1 µg/mL (≈ 2.58 µM). Still for that read-out and setting: with `O=c1oc2cc(O)ccc2c2oc3ccc(O)c(CN4CCC(F)(F)CC4)c3c12` the figure was 1 µg/mL (≈ 2.49 µM).

In turn, `O=c1oc2cc(O)ccc2c2oc3ccc(O)c(CN4CCC(F)(F)C4)c3c12` returned an MIC90 in data set [1] of more than 64 µg/mL. As for `O=c1oc2cc(O)ccc2c2oc3ccc4c(c3c12)CN(CC1CC1)CO4`, in data set [1], the MIC90 came out at 0.0625 µg/mL (≈ 0.172 µM). Besides, the ΔTm in data set [3] came out at 5.4 °C; in [7] it was 5.3 °C. Regarding `CC[C@@H](CO)NCCN[C@@H](CC)CO` [ETHAMBUTOL], the MIC90 in data set [1] is 1 µg/mL (≈ 4.89 µM). On to `O=c1oc2cc(O)ccc2c2oc3ccc4c(c3c12)CN(C1CCCC1)CO4`, for which the MIC90 in data set [1] worked out at 0.0039 µg/mL (≈ 0.0103 µM); in data set [4], 0.0078 µg/mL (≈ 0.0207 µM). Also, the remaining at 1 h in data set [2] came out at 80.9%. In addition, the results for the ΔTm in [3] and in [7] were 8.1 °C and 8.4 °C, respectively. Also, the selectivity ratio in data set [12] came out at 32. For the same molecule, in [5], the IC50 was 0.125 µg/mL (≈ 0.331 µM). In addition, the outcome in data set [6] and in data set [8] was Active. For the same molecule, in data set [9], the CLint scaled was less than 9.6 mL/min/kg. Also, the half-life in data set [10] is more than 2.42 h.

As to `CC(C)CCNCc1c(O)ccc2oc3c4ccc(O)cc4oc(=O)c3c12`, the MIC90 in data set [1] is 0.125 µg/mL (≈ 0.34 µM). Same read-out and setting: with `O=c1oc2cc(O)ccc2c2oc3ccc(O)c(CN4CC[C@@H](F)C4)c3c12` the figure was 0.5 µg/mL (≈ 1.35 µM). In data set [1], `O=c1oc2cc(O)ccc2c2oc3ccc(O)c(CN4CCCCC4)c3c12` gave an MIC90 of 0.0039 µg/mL (≈ 0.0107 µM). For the same molecule, the ΔTm in data set [3] was found to be 7 °C; in [7], 7.2 °C. The CLint scaled in [9] was 11.5 mL/min/kg; in data set [11], 10.4 mL/min/kg. Besides, the half-life in data set [10] worked out at 2 h. On to `O=c1oc2cc(O)ccc2c2oc3ccc(O)c(CN4CC[C@H](F)C4)c3c12`, for which the MIC90 in data set [1] stood at 0.125 µg/mL (≈ 0.338 µM). On the same count and under the same terms, with `O=c1oc2cc(O)ccc2c2oc3ccc(O)c(CNC4CCCCC4)c3c12` the figure was 0.25 µg/mL (≈ 0.659 µM). On the same count and under the same terms, with `O=c1oc2cc(O)ccc2c2oc3ccc(O)c(CNC4CCCC4)c3c12` the figure was 0.0039 µg/mL (≈ 0.0107 µM); with `COc1ccc2c(c1)oc(=O)c1c2oc2ccc(O)c(CN3CCC(F)(F)CC3)c21`, more than 64 µg/mL. Same read-out and setting: in the case of `NNC(=O)c1ccncc1` [ISONIAZID] it was 0.04 µg/mL (≈ 0.292 µM). Consider `CC(C)CCN1COc2ccc3oc4c5ccc(O)cc5oc(=O)c4c3c2C1`, for which the MIC90 in data set [1] amounted to 0.0625 µg/mL (≈ 0.165 µM). On the same count and under the same terms, in the case of `O=C(c1c(O)ccc2oc3c4ccc(O)cc4oc(=O)c3c12)N1CCCCC1` it was more than 64 µg/mL; in that of `O=C1CCCCN1Cc1c(O)ccc2oc3c4ccc(O)cc4oc(=O)c3c12`, more than 64 µg/mL.

With `COC(=O)c1c(NC(=O)c2c(F)c(F)c(F)c(F)c2F)sc2c1CCCCC2`, the MIC in data set [1] turned out to be 1 µM (≈ 0.419 µg/mL). In [1], `CO[C@H]1/C=C/O[C@@]2(C)Oc3c(C)c(O)c4c(O)c(c(/C=N/N5CCN(C)CC5)c(O)c4c3C2=O)NC(=O)/C(C)=C\C=C\[C@H](C)[C@H](O)[C@@H](C)[C@@H](O)[C@@H](C)[C@H](OC(C)=O)[C@@H]1C` [RIFAMPIN] had an MIC90 of 0.125 µg/mL (≈ 0.152 µM).
